Results from US11629169B2, “Use of peptides as therapeutic agent for autoimmune diseases and bone diseases” (KINE SCIENCES CO., LTD., priority 2017, dated 2023).

Experiments:
[1] = test system: collagen-induced arthritis (CIA) mouse model; assay: Rheumatoid arthritis treatment effect in collagen-induced arthritis (CIA) mouse model; format: in vivo, DBA/1J mouse; conditions: CIA mice, intraperitoneally 3 times a week after second immunization; similar efficacy compared to positive control MTX
Description: In order to confirm a rheumatoid arthritis improvement effect of the peptides prepared in Example 1, a rheumatoid arthritis mouse model was prepared with reference to a known literature (Nat Protoc. 2007; 2 (5):
Specifically, a CIA mouse model is a mouse model most commonly used in a rheumatoid arthritis animal test as an autoimmune disease arthritis model having characteristics similar to human rheumatoid arthritis. In the CIA mouse model, bovine type II collagen (Chondrex, USA) was mixed and emulsified with a Freund's complete adjuvant (Chondrex, USA) at 1:1, and then first immunization was performed by injecting 50 μl of the emulsified collagen solution intradermally into a 6-week-old DBA/1J mouse tail. On 2 weeks after the first immunization, bovine type II collagen was mixed and emulsified with a Freund's incomplete adjuvant (Chondrex, USA) at 1:1, and then second immunization (boosting) was performed by injecting 50 μl of the emulsified collagen solution induced) intradermally into the mouse tail. After the second immunization, each peptide was intraperitoneally administered 3 times a week from the following day to observe a therapeutic effect of the peptides for rheumatoid arthritis.
In order to examine the progression of rheumatoid arthritis according to the peptide treatment of the present invention, the severity of rheumatoid arthritis over time was evaluated and measured by a rheumatoid arthritis progress index.
At this time, the arthritis progress index was evaluated as Points 0 to 4 per leg in accordance with the arthritis progress evaluation criteria by Rossoliniec, etc. in Table 2 below and shown to total Points 0 to 16 (sum of four legs). Thereafter, an average value of the results evaluated by the two observers was calculated to quantify the severity of arthritis.

[2] = test system: naive CD4+ T cells extracted from lymph nodes of the mouse; assay: Th17 cell differentiation inhibition (CD4+IL-17+ T cell population); format: cell-based; conditions: IL-6 20 ng/ml and TGF-beta 5 ng/ml with TCR activation; peptide 10 ng/ml to 1000 ng/ml; 3 days; induced group 3.14%, non-induced 1.2%
Description: In order to confirm the efficacy of the synthetic peptides prepared in Example 1 to inhibit Th17 cell differentiation, naive CD4^+ T cells extracted from lymph nodes of the mouse were treated with IL-6 20 ng/ml and TGF-beta 5 ng/ml together with TCR activation to induce differentiation into Th17 cells.
At the same time, three peptides Pep2, Pep3, and Pep4 disclosed in Table 2 of Test Example 1 were treated at a concentration of 10 ng/ml to 1000 ng/ml, respectively. Then, after incubation for 3 days, CD4+IL-17+ T cell population was analyzed.

For PSSPSS (Pep1), the “arthritis improvement (arthritis progress index, total Points 0 to 16)” value [1] was “efficacy of arthritis improvement was shown”.
PTPPTP (Pep3) was tested, and the “ratio of Th17 cells (CD4+IL-17+ T cell population)” value (shortened to “ratio of Th17 cells”) [2] was “reduced similarly to the group that did not induce differentiation”.
PTSPTS (Pep4) was tested, and the “ratio of Th17 cells” value [2] was “reduced similarly to the group that did not induce differentiation” and the “arthritis improvement (arthritis progress index, total Points 0 to 16)” value [1] was “efficacy of arthritis improvement was shown”.
With SSPSSP (Pep2) the “ratio of Th17 cells” value [2] was “reduced similarly to the group that did not induce differentiation” and the “arthritis improvement (arthritis progress index, total Points 0 to 16)” value [1] was “efficacy of arthritis improvement was shown”.
STSSTS (Pep6) was tested, and the “arthritis improvement (arthritis progress index, total Points 0 to 16)” value [1] was “efficacy of arthritis improvement was shown”.
